Source: ChEMBL document CHEMBL1122176, “Synthesis and antitumor activity of 10-alkyl-10-deazaminopterins. A convenient synthesis of 10-deazaminopterin” (J Med Chem, 1982)
Converted amounts (≈) assume the structure as drawn.

Legend:
[1] = molecular target: Dihydrofolate reductase (Lactobacillus casei) (UniProt P00381); experiment: Concentration required for the 50% growth inhibition of Lactobacillus casei dihydrofolate reductase enzyme; details: Lacticaseibacillus casei
[2] = tested on: Lacticaseibacillus casei; experiment: Concentration required for the 50% growth inhibition of Lactobacillus casei ATCC 7469 organism at 1 ng/mL folate concentration; assay type: functional, organism-based
[3] = tested on: Enterococcus faecium; experiment: Concentration required for the 50% growth inhibition of Streptococcus faecium ATCC 8043 organism at 1 ng/mL folate concentration; assay type: functional, organism-based
[4] = tested on: Enterococcus faecium; experiment: Concentration required for the 50% growth inhibition of Streptococcus faecium MTX resist organism at 1 ng/mL folate concentration; assay type: functional, organism-based
[5] = Concentration required for the 50% growth inhibition of Streptococcus faecium ATCC 8043 organism at 1 ng/mL folate concentration
[6] = The efflux rate constant of the compound; assay type: ADME
[7] = Influx velocity of the compound; assay type: ADME
[8] = molecular target: T1, Dihydrofolate reductase (Mus musculus, UniProt P00375); experiment: Tested for inhibition of dihydrofolate reductase enzyme from mouse
T1 sequence (P00375 whole entry): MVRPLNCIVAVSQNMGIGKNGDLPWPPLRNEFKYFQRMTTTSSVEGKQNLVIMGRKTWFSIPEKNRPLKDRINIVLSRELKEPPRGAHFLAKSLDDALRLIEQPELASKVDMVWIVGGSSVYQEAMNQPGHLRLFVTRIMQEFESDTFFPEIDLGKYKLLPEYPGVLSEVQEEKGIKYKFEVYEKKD

[9] = tested on: L1210; experiment: Minimum inhibitory concentration of compound was tested for growth inhibition of L1210 cells.; assay type: functional; details: Mus musculus
[10] = Michaelis constant of compound was determined from affinity towards carrier component of transport mechanism
[11] = molecular target: T1, Dihydrofolate reductase; experiment: Tested for inhibition of dihydrofolate reductase enzyme
[12] = tested on: L1210; experiment: Minimum inhibitory concentration of compound was tested for growth inhibition of L1210 cells; assay type: functional; details: Mus musculus
[13] = tested on: L1210; experiment: % increase in lifespan was measured at 3 mg/kg dosage after sc administration; details: Mus musculus
[14] = tested on: L1210; experiment: % increase in lifespan was measured at 15 mg/kg dosage after sc administration; details: Mus musculus
[15] = tested on: L1210; experiment: Antitumor activity expressed as mean survival time against L1210 leukemia cells in mice after sc administration at dose 3 mg/kg; details: route subcutaneous
[16] = tested on: L1210; experiment: Antitumor activity expressed as mean survival time against L1210 leukemia cells in mice after sc administration at dose 15 mg/kg; details: route subcutaneous

Sequence of Dihydrofolate reductase (Lactobacillus casei) (P00381 whole entry): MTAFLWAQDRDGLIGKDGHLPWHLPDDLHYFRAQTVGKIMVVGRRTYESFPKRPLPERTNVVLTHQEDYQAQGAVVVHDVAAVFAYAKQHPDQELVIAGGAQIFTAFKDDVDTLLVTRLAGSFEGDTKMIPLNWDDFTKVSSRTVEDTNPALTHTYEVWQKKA

Row | Structure (SMILES) | IC50 [1] [nM] | Concentration [2] [ng/mL] | Concentration [3] [ng/mL] | Concentration [4] [ng/mL] | Concentration [5] [ng/mL] | K [6] [min⁻¹] | Vmax [7] [nM/min/g] | Ki [8] [nM] | MIC50 [9] [µM] | Km [10] [µM] | Ki [11] [nM] | MIC50 [12] [µM] | ILS at 3 mg/kg [13] [%] | ILS at 15 mg/kg [14] [%] | MST [15] [days] | MST [16] [days]
1 | CCC(Cc1cnc2nc(N)nc(N)c2n1)c1ccc(C(=O)O)cc1 (stereo not given) | 380 | 5.4 | 0.9 | 50 | 0.9 | – | – | – | – | – | – | – | – | – | – | –
2 | CC(C)(Cc1cnc2nc(N)nc(N)c2n1)c1ccc(C(=O)O)cc1 | 440 | 3.6 | 0.5 | 40 | 0.5 | – | – | – | – | – | – | – | – | – | – | –
3 | Nc1nc(N)c2nc(CNc3ccc(C(=O)N[C@@H](CCC(=O)O)C(=O)O)cc3)cnc2n1 [AMINOPTERIN] | – | – | – | – | – | 0.21 | 7.83 | 0.0023 | 0.00061 (≈ 0.269 ng/mL) | 1.21 | – | – | – | – | – | –
4 | CC(C)(Cc1cnc2nc(N)nc(N)c2n1)c1ccc(C(=O)NC(CCC(=O)O)C(=O)O)cc1 (stereo not given) | 27 | 0.04 | 0.25 | > 2000 | 0.25 | 0.24 | 8.31 | – | – | 0.93 | 0.0026 | 0.00058 (≈ 0.271 ng/mL) | 143 | 135 | 16.1 | 15.9
5 | CC(Cc1cnc2nc(N)nc(N)c2n1)c1ccc(C(=O)O)cc1 (stereo not given) | 420 | 5 | 0.72 | 60 | 0.72 | – | – | – | – | – | – | – | – | – | – | –
6 | CN(Cc1cnc2nc(N)nc(N)c2n1)c1ccc(C(=O)N[C@@H](CCC(=O)O)C(=O)O)cc1 [METHOTREXATE] | – | 0.01 | 0.05 | 3500 | – | 0.19 | 7.77 | – | – | 3.42 | – | 0.00271 (≈ 1.23 ng/mL) | 139 | 151 | 15.8 | 16.6
7 | CCC(Cc1cnc2nc(N)nc(N)c2n1)c1ccc(C(=O)NC(CCC(=O)O)C(=O)O)cc1 (stereo not given) | 27 | 0.08 | 0.37 | 1300 | 0.37 | 0.2 | 7.8 | – | – | 0.89 | – | 0.00055 (≈ 0.257 ng/mL) | 170 | 211 | 17.8 | 20.5
8 | Nc1nc(N)c2nc(CCc3ccc(C(=O)N[C@@H](CCC(=O)O)C(=O)O)cc3)cnc2n1 | – | 0.01 | 0.2 | > 2000 | 0.2 | 0.23 | 8.13 | – | – | 0.96 | 0.0021 | 0.00061 (≈ 0.268 ng/mL) | 162 | 178 | 17.3 | 18.4
9 | CC(Cc1cnc2nc(N)nc(N)c2n1)c1ccc(C(=O)NC(CCC(=O)O)C(=O)O)cc1 (stereo not given) | 28 | 0.03 | 0.32 | 200 | 0.32 | 0.23 | 8.02 | – | – | 1.01 | 0.0024 | 0.00051 (≈ 0.231 ng/mL) | 181 | 235 | 18.6 | 22.1
